Measurements published in patent US9549932B2, “2-(morpholin-4-yl)-1,7-naphthyridines” (BAYER PHARMA AKTIENGESELLSCHAFT, priority 2014, dated 2017).
Like-named read-outs stand apart in the source and are kept apart here.

Molecular target: full-length human ATR protein (Homo sapiens (Human), UniProt Q13535)
Test: Binding assay ATR (TR-FRET tracer displacement)
Conditions: TR-FRET
Description: To determine of binding activity of the test compounds, full-length human ATR protein was expressed and purified together with ATRIP as described above. Furthermore, a fluorescently labelled compound (either tracer A or B as described above) was used as a tracer molecule. Detection of the binding event of the tracer was achieved by time-resolved fluorescence energy transfer (TR-FRET). We used an anti-GST-Terbium antibody (CisBio) that binds to the GST-tag at the N-terminus of ATR-kinase. […] Displacement of the fluorescent tracer by a test compound leads to a reduction of the TR-FRET-signal.
For the assay 50 nl of a 100-fold concentrated solution of the test compound in DMSO was pipetted into a black low volume 384well microtiter plate (MTP, Greiner Bio-One, Frickenhausen, Germany). […] The ATR-working solution was incubated for 30 min at 22° C. prior to dispensing to pre-form the complex of antiGST-Tb+GST-ATR+ATRIP. Then, 3 μl of the ATR-working solution were added to the test compound and the mixture was incubated for 10 min at 22° C. to allow pre-binding of the test compounds to ATR/ATRIP. Then, 2 μl of a 100 nM solution of either tracer A or B in assay buffer were added to the ATR-working solution. The resulting mixture was incubated for 30 min at 22° C. […] The dilution series were prepared separately before the assay on the level of the 100 fold concentrated solutions in DMSO by serial 1:3.4 dilutions in duplicate values for each concentration. IC50 values were calculated by a 4 parameter fit using standard software (GraphPad prism or equivalent).

[1] = tracer A, read-out: ATR binding (tracer A) IC50
[2] = tracer B, read-out: ATR binding (tracer B) IC50

Chain of full-length human ATR protein (Q13535 other isoform, or with tags, fused parts or gaps): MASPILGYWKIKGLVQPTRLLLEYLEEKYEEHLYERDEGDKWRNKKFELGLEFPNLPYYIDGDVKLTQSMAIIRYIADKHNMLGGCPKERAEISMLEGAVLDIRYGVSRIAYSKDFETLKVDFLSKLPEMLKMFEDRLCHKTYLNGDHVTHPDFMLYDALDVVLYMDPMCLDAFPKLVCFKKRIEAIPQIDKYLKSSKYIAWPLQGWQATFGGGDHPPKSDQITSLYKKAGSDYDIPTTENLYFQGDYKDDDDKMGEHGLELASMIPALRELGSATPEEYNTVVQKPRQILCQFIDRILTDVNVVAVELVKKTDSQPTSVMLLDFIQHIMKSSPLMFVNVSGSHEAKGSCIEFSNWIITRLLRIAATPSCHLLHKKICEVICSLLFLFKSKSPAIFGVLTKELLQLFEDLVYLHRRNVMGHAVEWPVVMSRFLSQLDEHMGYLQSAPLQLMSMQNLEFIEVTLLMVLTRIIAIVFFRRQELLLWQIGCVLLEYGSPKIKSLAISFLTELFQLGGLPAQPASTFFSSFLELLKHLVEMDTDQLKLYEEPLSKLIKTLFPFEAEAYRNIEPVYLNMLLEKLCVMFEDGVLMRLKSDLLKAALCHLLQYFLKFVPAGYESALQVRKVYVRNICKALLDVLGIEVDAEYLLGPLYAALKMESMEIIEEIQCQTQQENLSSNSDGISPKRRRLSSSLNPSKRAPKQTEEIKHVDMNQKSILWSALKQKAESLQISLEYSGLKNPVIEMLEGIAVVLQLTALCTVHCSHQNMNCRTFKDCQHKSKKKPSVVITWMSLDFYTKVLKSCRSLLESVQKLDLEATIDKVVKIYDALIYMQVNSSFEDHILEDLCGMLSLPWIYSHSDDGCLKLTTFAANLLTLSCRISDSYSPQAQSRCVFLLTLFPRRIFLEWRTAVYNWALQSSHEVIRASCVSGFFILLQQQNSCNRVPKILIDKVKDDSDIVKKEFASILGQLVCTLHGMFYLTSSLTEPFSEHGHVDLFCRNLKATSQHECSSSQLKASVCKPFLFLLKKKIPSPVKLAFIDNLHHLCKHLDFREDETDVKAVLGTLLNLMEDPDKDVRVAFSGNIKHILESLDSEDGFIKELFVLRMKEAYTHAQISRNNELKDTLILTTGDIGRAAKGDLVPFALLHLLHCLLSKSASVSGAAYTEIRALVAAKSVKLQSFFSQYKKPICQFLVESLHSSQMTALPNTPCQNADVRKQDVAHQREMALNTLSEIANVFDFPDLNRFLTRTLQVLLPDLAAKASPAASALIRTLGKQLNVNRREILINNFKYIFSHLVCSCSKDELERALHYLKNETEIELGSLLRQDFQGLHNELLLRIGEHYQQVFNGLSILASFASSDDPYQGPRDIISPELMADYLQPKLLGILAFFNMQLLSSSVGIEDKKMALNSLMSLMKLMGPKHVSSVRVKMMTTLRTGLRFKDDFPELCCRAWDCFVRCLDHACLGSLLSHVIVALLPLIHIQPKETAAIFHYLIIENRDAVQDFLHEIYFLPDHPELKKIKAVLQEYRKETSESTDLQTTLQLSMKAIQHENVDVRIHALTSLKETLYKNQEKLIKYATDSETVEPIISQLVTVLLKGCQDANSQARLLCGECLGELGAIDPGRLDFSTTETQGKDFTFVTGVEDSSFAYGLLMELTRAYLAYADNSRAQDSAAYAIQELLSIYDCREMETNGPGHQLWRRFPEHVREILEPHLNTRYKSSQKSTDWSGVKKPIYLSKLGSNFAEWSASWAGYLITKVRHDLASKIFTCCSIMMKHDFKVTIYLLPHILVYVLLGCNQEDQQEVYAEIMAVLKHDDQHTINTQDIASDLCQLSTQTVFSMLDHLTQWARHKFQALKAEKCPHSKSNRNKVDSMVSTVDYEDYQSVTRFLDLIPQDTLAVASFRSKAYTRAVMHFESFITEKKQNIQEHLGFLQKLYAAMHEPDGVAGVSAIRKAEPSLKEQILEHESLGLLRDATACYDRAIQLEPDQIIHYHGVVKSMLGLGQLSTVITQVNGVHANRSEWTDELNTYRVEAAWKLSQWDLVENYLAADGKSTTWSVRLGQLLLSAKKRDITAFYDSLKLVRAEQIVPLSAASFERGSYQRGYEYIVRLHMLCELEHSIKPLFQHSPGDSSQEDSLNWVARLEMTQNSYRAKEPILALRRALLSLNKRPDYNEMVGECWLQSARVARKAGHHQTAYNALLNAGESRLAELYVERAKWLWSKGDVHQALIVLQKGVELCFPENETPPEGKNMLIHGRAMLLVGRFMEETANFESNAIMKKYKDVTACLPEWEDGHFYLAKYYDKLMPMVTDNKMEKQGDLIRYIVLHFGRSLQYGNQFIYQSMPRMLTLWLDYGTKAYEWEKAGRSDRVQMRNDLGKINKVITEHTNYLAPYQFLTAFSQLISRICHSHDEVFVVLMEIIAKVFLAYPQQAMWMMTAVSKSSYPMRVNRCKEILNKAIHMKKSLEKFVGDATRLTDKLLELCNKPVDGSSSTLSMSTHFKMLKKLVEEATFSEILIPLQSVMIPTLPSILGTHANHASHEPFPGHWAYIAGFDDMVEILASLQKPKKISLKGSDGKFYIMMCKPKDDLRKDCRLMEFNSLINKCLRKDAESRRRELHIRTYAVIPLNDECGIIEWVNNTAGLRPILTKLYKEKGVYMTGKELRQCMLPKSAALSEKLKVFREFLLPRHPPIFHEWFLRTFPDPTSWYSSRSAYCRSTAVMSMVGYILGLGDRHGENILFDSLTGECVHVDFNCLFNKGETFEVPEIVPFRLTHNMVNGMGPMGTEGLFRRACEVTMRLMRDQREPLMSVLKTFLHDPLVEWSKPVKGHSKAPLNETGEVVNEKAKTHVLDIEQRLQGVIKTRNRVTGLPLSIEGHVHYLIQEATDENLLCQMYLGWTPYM
Chain of full-length human ATR protein (Q8WXE1 other isoform, or with tags, fused parts or gaps partner): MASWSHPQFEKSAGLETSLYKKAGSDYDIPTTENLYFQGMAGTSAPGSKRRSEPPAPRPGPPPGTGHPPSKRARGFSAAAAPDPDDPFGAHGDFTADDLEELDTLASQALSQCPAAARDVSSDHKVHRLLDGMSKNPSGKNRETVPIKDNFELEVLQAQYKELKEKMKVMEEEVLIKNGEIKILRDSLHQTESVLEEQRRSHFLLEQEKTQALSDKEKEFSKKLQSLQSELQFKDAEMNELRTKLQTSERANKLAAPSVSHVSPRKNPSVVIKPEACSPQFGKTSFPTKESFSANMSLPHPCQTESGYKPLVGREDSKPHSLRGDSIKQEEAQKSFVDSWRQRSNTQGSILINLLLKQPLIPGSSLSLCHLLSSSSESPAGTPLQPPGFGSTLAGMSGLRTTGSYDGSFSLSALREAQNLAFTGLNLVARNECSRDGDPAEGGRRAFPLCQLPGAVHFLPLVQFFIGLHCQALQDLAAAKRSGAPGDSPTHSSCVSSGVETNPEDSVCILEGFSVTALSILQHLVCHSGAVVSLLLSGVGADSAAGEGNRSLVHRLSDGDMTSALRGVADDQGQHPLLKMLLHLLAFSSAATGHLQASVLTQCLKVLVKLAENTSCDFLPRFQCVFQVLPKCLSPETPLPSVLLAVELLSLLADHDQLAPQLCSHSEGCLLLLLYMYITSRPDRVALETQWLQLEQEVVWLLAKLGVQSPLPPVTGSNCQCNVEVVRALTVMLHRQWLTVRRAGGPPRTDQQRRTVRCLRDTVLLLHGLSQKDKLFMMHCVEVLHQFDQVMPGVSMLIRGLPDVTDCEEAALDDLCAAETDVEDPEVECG

| Structure (SMILES) | IC50 [1] | IC50 [2] |
| --- | --- | --- |
| C[C@@H]1COCCN1c1cc(-c2cnc(S(C)(=O)=O)c(F)c2)c2ccnc(-c3ccn[nH]3)c2n1 [Example 147, 4-[5-fluoro-6-(methylsulfonyl)pyridin-3-yl]-2-[(3R)-3-methylmorpholin-4-yl]-8-(1H-pyrazol-5-yl)-1,7-naphthyridine] | 45.4 nM |  |
| Fc1cccc(-c2cc(N3CCOCC3)nc3c(-c4ccn[nH]4)nccc23)c1F [Example 341, 4-(2,3-difluorophenyl)-2-(morpholin-4-yl)-8-(1H-pyrazol-5-yl)-1,7-naphthyridine] | 26.4 nM |  |
| c1ccc2c(c1)CCN(c1cc(N3CCOCC3)nc3c(-c4ccn[nH]4)nccc13)C2 [Example 419, 4-(3,4-dihydroisoquinolin-2(1H)-yl)-2-(morpholin-4-yl)-8-(1H-pyrazol-5-yl)-1,7-naphthyridine] | 118 nM |  |
| C[C@@H]1COCCN1c1cc(-c2ccccc2N)c2ccnc(-c3ccn[nH]3)c2n1 [Example 71, 2-{2-[(3R)-3-methylmorpholin-4-yl]-8-(1H-pyrazol-5-yl)-1,7-naphthyridin-4-yl]aniline] | 5.65 nM |  |
| Cc1cc(S(C)(=O)=O)ncc1-c1cc(N2CCOC[C@H]2C)nc2c(-c3ccn[nH]3)nccc12 [Example 79, 4-[4-methyl-6-(methylsulfonyl)pyridin-3-yl]-2-[(3R)-3-methylmorpholin-4-yl]-8-(1H-pyrazol-5-yl)-1,7-naphthyridine] | 12 nM |  |
| C[C@@H]1COCCN1c1cc(N2CCN(S(C)(=O)=O)CC2)c2ccnc(-c3ccn[nH]3)c2n1 [Example 82, 2-[(3R)-3-methylmorpholin-4-yl]-4-[4-(methylsulfonyl)piperazin-1-yl]-8-(1H-pyrazol-5-yl)-1,7-naphthyridine] | 4.9 nM |  |
| Cc1cc(-c2cc(N3CCOCC3)nc3c(-c4ccn[nH]4)nccc23)cnc1F [Example 224, 4-(6-fluoro-5-methylpyridin-3-yl)-2-(morpholin-4-yl)-8-(1H-pyrazol-5-yl)-1,7-naphthyridine] | 52.1 nM |  |
| C[C@@H]1COCCN1c1cc(C2=CCNCC2)c2ccnc(-c3ccn[nH]3)c2n1 [Example 245, 2-[(3R)-3-methylmorpholin-4-yl]-8-(1H-pyrazol-5-yl)-4-(1,2,3,6-tetrahydropyridin-4-yl)-1,7-naphthyridine] | 32 nM |  |
| Cc1cccc(-c2cc(N3CCOCC3)nc3c(-c4ccn[nH]4)nccc23)c1 [Example 308, 4-(3-methylphenyl)-2-(morpholin-4-yl)-8-(1H-pyrazol-5-yl)-1,7-naphthyridine] | 131 nM |  |
| CC(C)c1ccc(-c2cc(N3CCOCC3)nc3c(-c4ccn[nH]4)nccc23)cc1 [Example 329, 2-(morpholin-4-yl)-4-[4-(propan-2-yl)phenyl]-8-(1H-pyrazol-5-yl)-1,7-naphthyridine] | 169 nM |  |
| Fc1ccc(-c2cc(N3CCOCC3)nc3c(-c4ccn[nH]4)nccc23)cn1 [Example 360, 4-(6-fluoropyridin-3-yl)-2-(morpholin-4-yl)-8-(1H-pyrazol-5-yl)-1,7-naphthyridine] | 93.8 nM |  |
| CC(C)Oc1cc(N2CCOCC2)nc2c(-c3ccc[nH]3)nccc12 [Example 41, 2-(morpholin-4-yl)-4-(propan-2-yloxy)-8-(1H-pyrrol-2-yl)-1,7-naphthyridine] | 339 nM | 230 nM |
| C1=C(c2cc(N3CCOCC3)nc3c(-c4cc[nH]n4)nccc23)CCOC1 [Example 4, 4-(3,6-dihydro-2H-pyran-4-yl)-2-(morpholin-4-yl)-8-(1H-pyrazol-3-yl)-[1,7]naphthyridine] | 61.7 nM | 43.5 nM |
| C[C@@H]1COCCN1c1cc(-c2ccc(S(C)(=O)=O)cc2)c2ccnc(-c3cc[nH]n3)c2n1 [Example 26, 4-(4-methanesulphonylphenyl)-2-((R)-3-methylmorpholin-4-yl)-8-(2H-pyrazol-3-yl)-[1,7]naphthyridine] | 15.6 nM | 6.36 nM |
| c1ccc(Sc2cc(N3CCOCC3)nc3c(-c4ccn[nH]4)nccc23)cc1 [Example 207, 2-(morpholin-4-yl)-4-(phenylsulfanyl)-8-(1H-pyrazol-5-yl)-1,7-naphthyridine] | 542 nM |  |
| C=C(C)c1cc(N2CCOCC2)nc2c(-c3cc[nH]n3)nccc12 [Example 10, 4-isopropenyl-2-(morpholin-4-yl)-8-(1H-pyrazol-3-yl)-[1,7]naphthyridine] | 126 nM | 43.9 nM |
| O=C1OCCC1Oc1cc(N2CCOCC2)nc2c(-c3ccn[nH]3)nccc12 (stereo not drawn) [Example 47, 3-{[2-(morpholin-4-yl)-8-(1H-pyrazol-5-yl)-1,7-naphthyridin-4-yl]oxy}dihydrofuran-2(3H)-one] | 1390 nM |  |

| Structure (SMILES) | IC50 [1] | IC50 [2] |
| --- | --- | --- |
| CCn1cc(-c2cc(N3CCOC[C@H]3C)nc3c(-c4ccn[nH]4)nccc23)cn1 [Example 261, 4-(1-ethyl-1H-pyrazol-4-yl)-2-[(3R)-3-methylmorpholin-4-yl]-8-(1H-pyrazol-5-yl)-1,7-naphthyridine] | 29.2 nM |  |
| COc1cc(N2CCOC[C@H]2C)nc2c(-c3cc[nH]n3)nccc12 [Example 53, 4-methoxy-2-((R)-3-methylmorpholin-4-yl)-8-(1H-pyrazol-3-yl)-[1,7]naphthyridine] | 192 nM | 63.5 nM |
| COc1cccc(-c2cc(N3CCOCC3)nc3c(-c4ccn[nH]4)nccc23)c1F [Example 317, 4-(2-fluoro-3-methoxyphenyl)-2-(morpholin-4-yl)-8-(1H-pyrazol-5-yl)-1,7-naphthyridine] | 66.5 nM |  |
| CCCn1nccc1-c1cc(N2CCOC[C@H]2C)nc2c(-c3ccn[nH]3)nccc12 [Example 117, 2-[(3R)-3-methylmorpholin-4-yl]-4-(1-propyl-1H-pyrazol-5-yl)-8-(1H-pyrazol-5-yl)-1,7-naphthyridine] | 8.16 nM |  |
| c1csc(-c2cc(N3CCOCC3)nc3c(-c4ccn[nH]4)nccc23)c1 [Example 371, 2-(morpholin-4-yl)-8-(1H-pyrazol-5-yl)-4-(thiophen-2-yl)-1,7-naphthyridine] | 122 nM |  |
| COC(=O)c1ccc(-c2cc(N3CCOC[C@H]3C)nc3c(-c4ccn[nH]4)nccc23)[nH]1 [Example 120, Methyl 5-{2-[(3R)-3-methylmorpholin-4-yl]-8-(1H-pyrazol-5-yl)-1,7-naphthyridin-4-yl}-1H-pyrrole-2-carboxylate] | 13.1 nM |  |
| C[C@@H]1COCCN1c1cc(-c2ccnc(N3CCOCC3)c2F)c2ccnc(-c3ccn[nH]3)c2n1 [Example 223, 4-[3-fluoro-2-(morpholin-4-yl)pyridin-4-yl]-2-[(3R)-3-methylmorpholin-4-yl]-8-(1H-pyrazol-5-yl)-1,7-naphthyridine] | 124 nM |  |
| CSc1ncc(-c2cc(N3CCOCC3)nc3c(-c4ccn[nH]4)nccc23)cn1 [Example 395, 4-[2-(methylsulfanyl)pyrimidin-5-yl]-2-(morpholin-4-yl)-8-(1H-pyrazol-5-yl)-1,7-naphthyridine] | 149 nM |  |
| C[C@@H]1COCCN1c1cc(-c2cccc(S(C)(=O)=O)c2F)c2ccnc(-c3ccn[nH]3)c2n1 [Example 132, 4-[2-fluoro-3-(methylsulfonyl)phenyl]-2-[(3R)-3-methylmorpholin-4-yl]-8-(1H-pyrazol-5-yl)-1,7-naphthyridine] | 23.7 nM |  |
| CN(CC(C)(C)C)c1cc(N2CCOCC2)nc2c(-c3ccn[nH]3)nccc12 [Example 436, N-(2,2-dimethylpropyl)-N-methyl-2-(morpholin-4-yl)-8-(1H-pyrazol-5-yl)-1,7-naphthyridin-4-amine] | 24 nM |  |
| C[C@@H]1COCCN1c1cc(-c2cnn(C(F)F)c2)c2ccnc(-c3ccn[nH]3)c2n1 [Example 256, 4-[1-(difluoromethyl)-1H-pyrazol-4-yl]-2-[(3R)-3-methylmorpholin-4-yl]-8-(1H-pyrazol-5-yl)-1,7-naphthyridine] | 56.2 nM |  |
| C[C@@H]1COCCN1c1cc(-c2ccc(N3CCCC3)cc2F)c2ccnc(-c3ccn[nH]3)c2n1 [Example 134, 4-[2-fluoro-4-(pyrrolidin-1-yl)phenyl]-2-[(3R)-3-methylmorpholin-4-yl]-8-(1H-pyrazol-5-yl)-1,7-naphthyridine] | 34.3 nM |  |
| c1cc(-c2nccc3c(-c4cc[nH]n4)cc(N4CCOCC4)nc23)[nH]n1 [Example 387, 2-(morpholin-4-yl)-4-(1H-pyrazol-3-yl)-8-(1H-pyrazol-5-yl)-1,7-naphthyridine] | 218 nM |  |
| Cc1nn(C)cc1-c1cc(N2CCOCC2)nc2c(-c3ccn[nH]3)nccc12 [Example 271, 4-(1,3-dimethyl-1H-pyrazol-4-yl)-2-(morpholin-4-yl)-8-(1H-pyrazol-5-yl)-1,7-naphthyridine] | 41.6 nM |  |
| C[C@@H]1COCCN1c1cc(C2CC2)c2ccnc(-c3cc[nH]n3)c2n1 [Example 29, 4-cyclopropyl-2-((R)-3-methylmorpholin-4-yl)-8-(1H-pyrazol-3-yl)-[1,7]-naphthyridine] | 21.5 nM | 9.23 nM |
| C[C@@H]1COCCN1c1cc(-c2cncn2C)c2ccnc(-c3ccn[nH]3)c2n1 [Example 70, 4-(1-methyl-1H-imidazol-5-yl)-2-[(3R)-3-methylmorpholin-4-yl]-8-(1H-pyrazol-5-yl)-1,7-naphthyridine] | 5.17 nM |  |
